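Test compounds were applied to cells in 96-well plates for 48 hours at 5 doses. GI50: concentration for 50% inhibition of growth. TGI: concentration producing complete growth inhibition.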
What was measured:
Assay in all cases: NCI tumour cell line growth inhibition, 48 h
[1] = system: HT29 colon
[2] = system: U251 CNS
[3] = system: ACHN renal
[4] = system: HOP-92 NSCLC
[5] = system: IGROV1 ovarian
[6] = system: NCI-H23 lung
[7] = system: OVCAR-8 ovarian
[8] = system: MOLT-4 leukemia
[9] = system: NCI-H460 lung
[10] = system: NCI-H226 lung

Compound	TGI [1]	TGI [2]	TGI [3]	TGI [4]	TGI [5]	TGI [6]	TGI [7]	TGI [8]	TGI [9]	TGI [10]	GI50 [1]	GI50 [2]	GI50 [10]	GI50 [3]	GI50 [4]	GI50 [5]	GI50 [6]	GI50 [7]	GI50 [8]	GI50 [9]
COc1cccc(-c2cc(=O)c3cc(C)c(C)c(C(=O)O)c3o2)c1	> 100 µM	> 100 µM	> 100 µM	> 100 µM	> 100 µM	> 100 µM	> 100 µM	> 100 µM	> 100 µM											
Nc1nc(=O)c2[nH]cnc2n1O	> 100 µM	> 100 µM	> 100 µM	> 100 µM	> 100 µM	> 100 µM	> 100 µM	> 100 µM	> 100 µM	> 100 µM										
COc1ccc(-c2c(-c3cc4c(c(OC)c3OC)OCO4)noc2N)cc1	3.15 µM	> 100 µM	> 100 µM	46.3 µM	> 100 µM	> 100 µM	> 56.1 µM	> 100 µM	> 45.2 µM	> 100 µM	0.279 µM	0.417 µM	0.804 µM	1.43 µM	0.679 µM	1.1 µM	0.427 µM	0.455 µM	0.621 µM	0.379 µM
COc1ccccc1CN=C1NC(=O)/C(=C/c2ccc3ncccc3c2)S1	> 25 µM	> 16.1 µM	> 25 µM	22 µM	> 19.4 µM	> 25 µM	> 25 µM	> 19 µM	> 25 µM	> 25 µM	8.45 µM	4.51 µM	8.43 µM	7.49 µM	6.24 µM	6.56 µM	8.65 µM	8.17 µM	8.17 µM	6.91 µM
O=C(NCCN1CCOCC1)Nc1nc2ccc(Sc3nnc4ccc(-c5ccc(F)cc5)nn34)cc2s1	> 24.2 µM		> 100 µM	> 100 µM	> 100 µM	> 100 µM	> 100 µM	> 100 µM	> 100 µM	> 100 µM	2.79 µM		3.67 µM	> 90.8 µM	3.32 µM	> 100 µM	> 100 µM	> 100 µM	> 100 µM	
Cc1cc(NCCCNc2ccnc3cc(Cl)ccc23)nc(Nc2ccc(C(=O)N3CCCCC3)cc2)n1	7.2 µM	4.92 µM	8.23 µM		12.7 µM	18.6 µM	12.4 µM	13.5 µM	7.63 µM	36.9 µM	2.33 µM	2.25 µM	21.8 µM	2.85 µM		3.09 µM	4.38 µM	3.61 µM	2.86 µM	2.7 µM
CCOC(=O)C1Nc2ccc([N+](=O)[O-])cc2[C@H]2OCC[C@@H]12 (some centres undefined)	> 100 µM	> 100 µM	> 100 µM		> 100 µM	> 100 µM	> 100 µM	> 100 µM	> 100 µM	> 100 µM										
COc1cc(-c2nn(-c3ccc(NC(=O)Nc4ccc(Cl)c(C(F)(F)F)c4)cc3)cc2-c2ccncc2)ccc1Cl		2.62 µM	9.71 µM	5.85 µM	6.07 µM	5.79 µM	7.83 µM		3.62 µM	7.22 µM		1.21 µM	2.14 µM	2.02 µM	1.82 µM	2.06 µM	1.98 µM	2.03 µM		1.71 µM
CC12CCC(=O)N1c1cc([N+](=O)[O-])ccc1N2 (centres undefined)	> 100 µM	> 100 µM	> 100 µM		> 100 µM	> 100 µM	> 100 µM	> 100 µM		> 100 µM										
CC(=O)CC(=O)ON(C)C(C)=O	> 100 µM	> 100 µM	> 100 µM		> 100 µM	> 100 µM	> 100 µM	> 100 µM	> 100 µM	> 100 µM										
CC(C)(C)c1cc(O)c2c(c1O)C(=O)CCC2	> 100 µM	> 100 µM	> 100 µM	21.1 µM	> 100 µM	> 100 µM	> 100 µM	53.8 µM	> 100 µM											
CC1=CC[C@@H]2[C@@H](CC[C@@]2(C)O)C(C)(C)[C@H]1CC[C@@H]1[C@@]2(C)CC[C@@H](O)C(C)(C)O[C@@H]2CC[C@]1(C)O		39.8 µM	58.7 µM	37.1 µM		76.2 µM		47.5 µM	34.8 µM											
COC1=CC(=O)c2c(O)c3c(c(O)c2C1=O)OC1(Oc2c(cc4cc(C)oc(=O)c4c2O)CC1O)C3O (centres undefined)	> 100 µM	> 100 µM	> 100 µM	> 100 µM	66.5 µM	> 100 µM	> 100 µM	> 100 µM	67.8 µM											
O=c1ncc(I)c[nH]1		> 100 µM	> 100 µM	> 100 µM	> 100 µM	> 100 µM	> 100 µM	> 100 µM	> 100 µM	> 100 µM		> 100 µM	> 100 µM	> 100 µM	> 100 µM	> 100 µM	> 100 µM	> 100 µM	> 100 µM	> 100 µM
CCOc1ccc(NC(=O)/C(Cc2nc3ccccc3[nH]c2=O)=N\O)cc1		> 100 µM	> 100 µM	> 100 µM	> 100 µM	> 100 µM	> 100 µM	> 100 µM	> 100 µM											
C[C@]12CC[C@H](OC(=O)Cc3ccc(N(CCCl)CCCl)cc3)CC1CC[C@@H]1C2CC[C@]2(C)NC(=O)CCC12 (some centres undefined)	3.79 µM	29.3 µM	27.7 µM	35.6 µM	30.5 µM	35.4 µM		15.6 µM	35.1 µM	69.6 µM										
CCOC(=O)NC(=O)c1cn(CC(=O)NCC(=O)NCC(=O)N2CCN(CCn3c(C)nc(C(N)=O)c3N)CC2)c(=O)[nH]c1=O	> 100 µM	> 100 µM	> 100 µM	> 100 µM	> 100 µM	> 100 µM	> 100 µM	> 100 µM	> 100 µM											
Cc1cc(Cl)ccc1NC(=O)C1C(=O)C(=O)N(c2ccc(Cl)cc2C)C1=O (centres undefined)	> 100 µM	> 100 µM	> 100 µM	54.2 µM	> 100 µM	> 100 µM	> 100 µM	> 100 µM		> 100 µM										
NNC(=O)C(O)C(O)C(O)CO (centres undefined)	> 100 µM	> 100 µM	> 100 µM	> 100 µM	> 100 µM	> 100 µM	> 100 µM		> 100 µM	> 100 µM										

Compound	TGI [1]	TGI [2]	TGI [3]	TGI [4]	TGI [5]	TGI [6]	TGI [7]	TGI [8]	TGI [9]	TGI [10]	GI50 [1]	GI50 [2]	GI50 [10]	GI50 [3]	GI50 [4]	GI50 [5]	GI50 [6]	GI50 [7]	GI50 [8]	GI50 [9]
N#CC1=C(c2ccccc2)NN(Cc2ccccc2)C(c2ccc(Cl)cc2)CC1=O (centres undefined)	38.7 µM	38.2 µM	> 100 µM	45.1 µM		> 100 µM		> 100 µM	52.9 µM	> 100 µM										
C[C@]12CC/C(=N\O)C[C@@H]1CC[C@@H]1[C@@H]2CC[C@]2(C)/C(=N/O)CC[C@@H]12	> 100 µM	> 100 µM	> 100 µM	> 100 µM	62.6 µM	80.2 µM	> 100 µM	> 100 µM	> 100 µM		42.7 µM	35.2 µM		50.1 µM	> 100 µM	17.4 µM	45.6 µM	45.2 µM	64.4 µM	34.2 µM
O=C1C[C@@H]2[C@@H](C=CC23CC3)N1O	> 100 µM	> 100 µM			> 100 µM	> 100 µM	> 100 µM	> 100 µM	> 100 µM	> 100 µM										
O=C1C2c3[nH]c4ccccc4c3C3CCC(c4ccccc4)CC3C2C(=O)N1c1ccccc1 (centres undefined)	> 100 µM	> 100 µM	> 100 µM		> 100 µM	> 100 µM	> 100 µM	> 100 µM	> 100 µM	> 100 µM										
N#Cc1c(N)n(C2OC(CO)C(O)C2O)c2ncnc(N)c12 (centres undefined)	> 100 µM	> 78.2 µM	0.417 µM	> 100 µM	> 100 µM	0.206 µM	0.279 µM	0.163 µM		0.372 µM										
CN(Cc1ccccc1)c1ncnc2ccc(Br)cc12		24.6 µM	28.1 µM	25.8 µM	> 100 µM	28.9 µM	95.5 µM	28.8 µM	26 µM	39.1 µM		11.9 µM	13.8 µM	12.6 µM	7.16 µM	8.17 µM	11.3 µM	26.1 µM	5.77 µM	10.3 µM
COc1ccc(C(=C(C#N)C#N)c2ccc(OC)cc2)cc1	> 100 µM	> 100 µM	> 100 µM		> 100 µM	> 100 µM	> 100 µM	> 100 µM	> 100 µM	> 100 µM										
CO[C@H](C(=O)O[C@H]1C(=O)N2CCC3CCC1C32C)c1ccccc1 (some centres undefined)	> 100 µM	> 100 µM	> 100 µM		> 100 µM	> 100 µM	> 100 µM	> 100 µM	> 100 µM	> 100 µM										
Clc1cc(Cl)cc(C2SCc3nc4ccccc4n32)c1 (centres undefined)	25.2 µM	34.2 µM	69 µM	47.2 µM		45.4 µM	33.2 µM	57.2 µM	29.3 µM	37.3 µM										
[O-]c1ccccc1[C-]=Nc1ccccc1O.[O-]c1ccccc1[C-]=Nc1ccccc1O.[O]=[U]=[O]	95.3 µM	33.6 µM	26.7 µM	35.2 µM	71 µM	76.5 µM	66.7 µM	65 µM	41.2 µM		16 µM	11.6 µM		9.09 µM	8.4 µM	21.8 µM	11.3 µM	14.8 µM	2.95 µM	14.5 µM
CN1C(=O)C(C)(C)NS1(=O)=O	> 100 µM	> 100 µM	> 100 µM		> 100 µM	> 100 µM	> 100 µM	> 100 µM	> 100 µM											
O=C1C2=C(C(=O)c3c(O)ccc(O)c31)N(c1cccnc1)Cc1ccccc1O2	4.23 µM	2.76 µM	0.195 µM	0.459 µM	0.96 µM		3.43 µM		6.78 µM	1.82 µM	0.313 µM	0.651 µM	0.703 µM	0.0612 µM	0.207 µM	0.289 µM		0.552 µM	0.21 µM	2.6 µM
C=CCNC(=O)ON1C(=O)CCC1=O	> 100 µM	> 100 µM	> 100 µM	> 100 µM	> 100 µM	> 100 µM	> 100 µM	> 100 µM	> 100 µM											
COC(=O)CCC(=O)Nc1cccc(C(F)(F)F)c1	> 100 µM	> 100 µM	> 100 µM	> 100 µM	> 100 µM	> 100 µM	> 100 µM	> 100 µM	> 100 µM											
O=C(/C=C/c1ccc[nH]1)c1ccccc1	> 100 µM	> 100 µM	> 100 µM	> 100 µM		> 100 µM	> 100 µM	> 100 µM	> 100 µM	> 100 µM										
CC(C)COC(=O)N1N=NC2C3CC(=O)C(O3)C21 (centres undefined)	> 100 µM	> 100 µM	> 100 µM	> 100 µM	> 100 µM	> 100 µM	> 100 µM	> 100 µM	> 100 µM											
C=CC1CC12C(=O)C1OC2(C)C2C(=O)c3c(O)cccc3C(=O)C12 (centres undefined)	> 100 µM	77.7 µM	46.6 µM	> 100 µM		85.6 µM	> 100 µM	> 100 µM	> 100 µM	> 100 µM	33.9 µM	28.7 µM	45.6 µM	20.1 µM	25.8 µM		26.9 µM	37.8 µM	23.6 µM	33.8 µM
COc1ccc(C(=O)OC2C(OC3C(O)COC(O[C@H]4C[C@H]5[C@@H]6CC=C7C[C@@H](O)CC[C@]7(C)[C@H]6CC[C@]5(C)[C@H]4[C@H](C)C(=O)CCC(C)C)C3OC(=O)C(C)C)OCC(O)C2O)cc1 (some centres undefined)	4.85 µM	4.16 µM	4.82 µM	3.1 µM	4.22 µM	4.67 µM	8.4 µM	0.0192 µM	0.538 µM		0.0507 µM	0.00381 µM		0.111 µM	0.0208 µM	0.0219 µM	0.175 µM	2.82 µM	0.00649 µM	0.0108 µM

Source: PubChem BioAssay (NCI)
